Legend:
Haemate ® Factor VIII = test: Clotting activity of Haemate after virus inactivation; format: biochemical; conditions: for Activity (clotting activity): Haemate ® Factor VIII, 3 hours 37° C.
PI3 virus = test: Inactivation of PI3 virus, infectiousness titration; format: cell-based, Bovine parainfluenza 3 virus; conditions: 37° C.; for Virus inactivation: EME medium
[1] = system: envelope-containing and nonenveloped virus species; format: cell-based
PPV = test: Inactivation of PPV, infectiousness titration; format: cell-based, Porcine parvovirus
Beriplex ® Factor II = Beriplex ® Factor II (Homo sapiens, UniProt P00734); test: Clotting activity of Beriplex after virus inactivation; format: biochemical; conditions: 3 hours 37° C.
BPV = test: Inactivation of BPV, infectiousness titration; format: cell-based, Bovine parvovirus; conditions: for Virus inactivation: BPV, 45° C.
IBRV = test: Inactivation of IBRV, infectiousness titration; format: cell-based, Infectious bovine rhinotracheitis virus; conditions: for Titer reduction / Treatment titer: 45° C.
CPV = test: Inactivation of CPV in protein solutions, infectiousness titration; format: cell-based, Canine parvovirus; conditions: Acriflavine 0.001 mg/ml
BVDV = test: Inactivation of BVDV, infectiousness titration; format: cell-based, Bovine viral diarrhoea virus; conditions: Venimmun + BVDV; Acriflavine 0.001 mg/ml; 37° C.; 3 h
[2] = Beriplex + PPV, BACI 0.001 mg/ml, 30° C., 0 h
[3] = Beriplex + PPV, BACI 0.001 mg/ml, 30° C., 1 h
[4] = Beriplex + PPV, BACI 0.001 mg/ml, 30° C., 2 h
[5] = Beriplex + PPV, BACI 0.001 mg/ml, 30° C., 3 h
[6] = Beriplex + PPV, BACI 0.01 mg/ml, 37° C., 0 h
[7] = Beriplex + PPV, BACI 0.01 mg/ml, 37° C., 1 h
[8] = Beriplex + PPV, BACI 0.01 mg/ml, 37° C., 2 h
[9] = Beriplex + PPV, BACI 0.01 mg/ml, 37° C., 3 h
[10] = Beriplex + PPV, Acriflavine 0.001 mg/ml, 30° C., 0 h
[11] = Beriplex + PPV, Acriflavine 0.001 mg/ml, 30° C., 1 h
[12] = Beriplex + PPV, Acriflavine 0.001 mg/ml, 30° C., 2 h
[13] = Beriplex + PPV, Acriflavine 0.001 mg/ml, 30° C., 3 h
[14] = Beriplex + PPV, Acriflavine 0.001 mg/ml, 37° C., 3 h
[15] = Haemate + PPV, Acriflavine 0.001 mg/ml, 37° C., 3 h

For “Haemate®: Concentrate from clotting factor VIII and Von-Willebrand factor, pasteurized (Behringwerke AG)”, the “Activity decrease of clotting preparation after acridines/benzalkonium chloride inactivation, in words” value (Haemate ® Factor VIII; Table 7) was “tolerable”.
With Benzalkonium chloride [BACI] the Virus inactivation (PI3 virus; BACI 0.005 mg/ml, 0-0.03 h) was “≧5.9 log10/ml”, the Virus inactivation (PI3 virus; BACI 0.0125 mg/ml, 0-0.03 h) was 0.5 log10/ml and the Virus inactivation (PI3 virus; BACI 0.0125 mg/ml, 1 h) was 1.3 log10/ml. The Virus inactivation (PI3 virus; BACI 0.025 mg/ml, 0-0.03 h) was 1.4 log10/ml, the Virus inactivation (PI3 virus; BACI 0.025 mg/ml, 1 h) was “≧5.3 log10/ml” and the Virus inactivation (PI3 virus; BACI 0.05 mg/ml, 1 h) was “≧5.3 log10/ml”. The Virus inactivation (PI3 virus; BACI 0.1 mg/ml, 0-0.03 h) was “≧5.9 log10/ml”, the Virus inactivation (PI3 virus; BACI 0.1 mg/ml, 1 h) was “≧5.3 log10/ml” and the “Inactivation of PI3 virus, in words” value (PI3 virus; high doses of BACI (0.1 mg/ml, 0.05 mg/ml), time needed to mix, sample and titrate) was “infectious virus was no longer detectable”. The “Virus species inactivated, in words” value [1] was “only envelope-containing viruses can be, inactivated”, the “Activity (clotting activity)” value (Haemate ® Factor VIII; BACI 0.02 mg/ml) was 20.7 IU/ml and the Titer reduction (PPV; [2]) was 0 log10/ml. The Treatment titer (PPV; [2]) was 4.8 log10/ml, the Titer reduction (PPV; [3]) was 0 log10/ml and the Treatment titer (PPV; [3]) was 4.8 log10/ml. It also gave a Titer reduction (PPV; [4]) of 0 log10/ml, a Treatment titer (PPV; [4]) of 4.8 log10/ml and a Titer reduction (PPV; [5]) of 0 log10/ml. It also gave a Treatment titer (PPV; [5]) of 4.6 log10/ml, a Titer reduction (PPV; [6]) of 0 log10/ml and a Treatment titer (PPV; [6]) of 4.8 log10/ml. The Titer reduction (PPV; [7]) was 0 log10/ml, the Treatment titer (PPV; [7]) was 4.6 log10/ml and the Titer reduction (PPV; [8]) was 0 log10/ml. It also gave a Treatment titer (PPV; [8]) of 4.6 log10/ml, a Titer reduction (PPV; [9]) of 0.2 log10/ml and a Treatment titer (PPV; [9]) of 4.6 log10/ml. The “Activity (clotting activity)” value (Beriplex ® Factor II; BACI 0.02 mg/ml) was 61.3 IU/ml, the Virus inactivation (BPV; BACI 0.01 mg/ml, 1 hour) was 0 log10/ml and the Virus inactivation (BPV; BACI 0.01 mg/ml, 2 hours) was 0 log10/ml. For the same compound, the Virus inactivation (BPV; BACI 0.05 mg/ml, 1 hour) was 0 log10/ml, the Virus inactivation (BPV; BACI 0.05 mg/ml, 2 hours) was 0 log10/ml and the “Inactivation of BPV, in words” value (BPV; test conditions of Table 2, 45° C., 1 or 2 hours) was “not inactivated”.
`CCOc1ccc2nc3cc(N)ccc3c(N)c2c1` [Ethacridine lactate] was tested, and the Titer reduction (IBRV; 0 h) was 0 log10/ml, the Treatment titer (IBRV; 0 h) was 6.5 log10/ml and the Titer reduction (IBRV; 1 h) was 3.7 log10/ml. For the same compound, the Treatment titer (IBRV; 1 h) was 2.0 log10/ml, the Titer reduction (IBRV; 2 h) was “≧2.8 log10/ml” and the Treatment titer (IBRV; 2 h) was “≦1.5 log10/ml”.
For “3,6-diamino-10-methylacridinium, chloride and 3,6-acridineidiamine [Acriflavine]”, the “Activity (clotting activity)” value (Haemate ® Factor VIII; A 0.001 mg/ml) was 16.8 IU/ml, the “Activity (clotting activity)” value (Haemate ® Factor VIII; A 0.002 mg/ml) was 18.9 IU/ml and the Titer reduction (CPV; FCS + CPV, 37° C., 3 h) was 3.5 log10/ml. The Treatment titer (CPV; FCS + CPV, 37° C., 3 h) was 3.4 log10/ml, the Titer reduction (CPV; FCS + CPV, 45° C., 0 h) was 0 log10/ml and the Treatment titer (CPV; FCS + CPV, 45° C., 0 h) was 6.8 log10/ml. The Titer reduction (CPV; FCS + CPV, 45° C., 1 h) was 2.0 log10/ml, the Treatment titer (CPV; FCS + CPV, 45° C., 1 h) was 4.8 log10/ml and the Titer reduction (CPV; FCS + CPV, 45° C., 2 h) was 3.3 log10/ml. It also gave a Treatment titer (CPV; FCS + CPV, 45° C., 2 h) of 3.5 log10/ml, a Titer reduction (CPV; FCS + CPV, 45° C., 3 h) of 4.2 log10/ml and a Treatment titer (CPV; FCS + CPV, 45° C., 3 h) of 2.8 log10/ml. It also gave a Titer reduction (CPV; Venimmun + CPV, 37° C., 3 h) of 3.0 log10/ml, a Treatment titer (CPV; Venimmun + CPV, 37° C., 3 h) of 3.9 log10/ml and a Virus inactivation (IBRV; 37° C., 2 hours) of 3.3 log10/ml. For the same compound, the Titer reduction (PPV; [10]) was 0 log10/ml, the Treatment titer (PPV; [10]) was 4.8 log10/ml and the Titer reduction (PPV; [11]) was 1.0 log10/ml. The Treatment titer (PPV; [11]) was 3.6 log10/ml, the Titer reduction (PPV; [12]) was 1.7 log10/ml and the Treatment titer (PPV; [12]) was 2.9 log10/ml. The Titer reduction (PPV; [13]) was “≧3.3 log10/ml”, the Treatment titer (PPV; [13]) was “≦1.5 log10/ml” and the Titer reduction (PPV; [14]) was “≧3.3 log10/ml”. For the same compound, the Treatment titer (PPV; [14]) was “≦1.5 log10/ml”, the Titer reduction (PPV; [15]) was “≧3.8 log10/ml” and the Treatment titer (PPV; [15]) was “≦1.5 log10/ml”. For the same compound, the “Activity (clotting activity)” value (Beriplex ® Factor II; A 0.001 mg/ml) was 50.0 IU/ml, the “Activity (clotting activity)” value (Beriplex ® Factor II; A 0.002 mg/ml) was 48.8 IU/ml and the Titer reduction (BVDV) was “≧6.0 log10/ml”. The Treatment titer (BVDV) was 0 log10/ml.
